Source: patent publication US8404677B2, “Kinase inhibitors” (Genosco, priority 2009, dated 2013)
Values belong to the molecule of their own block, whether it stands above or below them.

What was measured:
[1] = target: truncated human LRRK2 (Homo sapiens, UniProt Q5S007); assay: Inhibition of enzymatic kinase activity (LANCE Ulight); assay type: biochemical
Description: (§1) Inhibition of Enzymatic SYK, ZAP70, PYK2, FAK, PIM1, RET, FLT3, JAK2 and LRRK2 Kinase Activity
(§2) Compounds of the invention were initially diluted to 10 mM in 100% DMSO (CALBIOCHEM™) for storage and made into kinase buffer solution to create a compound concentration ranging from 1 uM and 10 uM. Serial dilutions of compounds of the invention were dispensed into a 96-well plate (GREINER BIOSCIENCES™) at 6 μL each. Purified full-length human SYK, ZAP70, PIM1, PYK2 and truncated human FAK, RET, FLT3, JAK2, and LRRK2 (CARNA BIOSCIENCES™) were diluted in kinase buffer and added to the compound solutions and pre-incubated for 30 minutes at room temperature (1 hour for PYK2). […] The reaction mixture was incubated for 1 hour (2 hours for PYK2). Following the incubation, the stop solution made with EDTA, water, and Lance detection buffer ([…]™) was added (12 μL each) to stop phosphorylation.

[2] = system: SN4741 cells overexpressing LRRK2 G2019S; assay: Neuroprotection from LRRK2-mediated dopaminergic cell death (H2O2, crystal violet); assay type: cell-based, murine; conditions: for Percent Cell Death: 100 μM hydrogen peroxide
Description: (§3) SN4741, a murine dopaminergic cell line were cultured in DMEM containing 10 FBS at 37° C., respectively. SN4741 cells (1.5×10^4/well) were seeded in 48 well plates 1 day before transient transfection with 1 μg of the pcDNA3.1 plasmids of either vector, LRRK wildtype cDNA, LRRK G2019S cDNA, by standard CaCl2 precipitation. Two days after transfection, cells were treated with 100 μM hydrogen peroxide for 1 day and cell viability was measured by crystal violet assay. For compound treatment, the test compounds were added at 0.05 μM, 0.5 μM and 5 μM and the cells were incubated for 1 hour prior to the addition of hydrogen peroxide.
(§4) SN4741 cells were transfected with plasmids containing the LRRK2 wild-type or G2019S and incubated them for 2 days followed by addition of 100 μM of hydrogen peroxide for 24 h to sensitize them to oxidative stress. Cell survival was assessed using the crystal violet.

[3] = system: SN4741 cells overexpressing LRRK2 wild-type; assay: as above; assay type: cell-based, murine; conditions: for Percent Cell Death: LRRK2 WT, 100 μM hydrogen peroxide
Description: as §3, §4

[4] = system: SN4741 cells transfected with vector; assay: as above; assay type: cell-based, murine; conditions: 100 μM hydrogen peroxide
Description: as §3, §4

[5] = target: T1, truncated human FLT3 (Homo sapiens, UniProt P36888); assay: Inhibition of enzymatic kinase activity (LANCE Ulight); assay type: biochemical
T1 construct: truncated human FAK, RET, FLT3, JAK2, and LRRK2 (CARNA BIOSCIENCES™); purchased Carna Biosciences
T1 sequence (P36888 564-993 limits assumed): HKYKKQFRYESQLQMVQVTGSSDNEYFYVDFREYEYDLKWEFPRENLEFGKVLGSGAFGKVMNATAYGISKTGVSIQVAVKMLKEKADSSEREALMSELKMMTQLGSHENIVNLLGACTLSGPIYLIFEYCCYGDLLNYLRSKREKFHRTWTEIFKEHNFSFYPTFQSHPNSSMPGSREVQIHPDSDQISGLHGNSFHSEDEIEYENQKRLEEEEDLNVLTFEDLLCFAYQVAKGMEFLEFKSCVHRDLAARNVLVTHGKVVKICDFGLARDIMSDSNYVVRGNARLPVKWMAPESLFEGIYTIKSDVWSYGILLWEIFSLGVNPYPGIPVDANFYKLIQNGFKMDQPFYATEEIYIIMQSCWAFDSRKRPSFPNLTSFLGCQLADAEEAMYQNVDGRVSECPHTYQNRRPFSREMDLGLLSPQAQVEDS
Description: as §1, §2

[6] = target: T2, truncated human JAK2 (Homo sapiens, UniProt O60674); assay: as above; assay type: biochemical
T2 construct: truncated human FAK, RET, FLT3, JAK2, and LRRK2 (CARNA BIOSCIENCES™); purchased Carna Biosciences
T2 sequence (O60674 826-1132 limits assumed): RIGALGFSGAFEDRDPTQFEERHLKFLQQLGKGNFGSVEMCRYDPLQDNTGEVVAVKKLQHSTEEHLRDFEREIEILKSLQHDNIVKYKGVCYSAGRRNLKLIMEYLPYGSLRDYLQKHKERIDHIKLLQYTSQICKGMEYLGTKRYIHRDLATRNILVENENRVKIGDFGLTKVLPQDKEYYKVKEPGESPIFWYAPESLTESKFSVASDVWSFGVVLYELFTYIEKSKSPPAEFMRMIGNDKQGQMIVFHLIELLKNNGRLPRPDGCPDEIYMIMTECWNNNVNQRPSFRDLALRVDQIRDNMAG
Description: as §1, §2

[7] = target: T3, truncated human RET (Homo sapiens, UniProt P07949); assay: as above; assay type: biochemical
T3 construct: truncated human FAK, RET, FLT3, JAK2, and LRRK2 (CARNA BIOSCIENCES™); purchased Carna Biosciences
T3 sequence (P07949 658-1114 limits assumed): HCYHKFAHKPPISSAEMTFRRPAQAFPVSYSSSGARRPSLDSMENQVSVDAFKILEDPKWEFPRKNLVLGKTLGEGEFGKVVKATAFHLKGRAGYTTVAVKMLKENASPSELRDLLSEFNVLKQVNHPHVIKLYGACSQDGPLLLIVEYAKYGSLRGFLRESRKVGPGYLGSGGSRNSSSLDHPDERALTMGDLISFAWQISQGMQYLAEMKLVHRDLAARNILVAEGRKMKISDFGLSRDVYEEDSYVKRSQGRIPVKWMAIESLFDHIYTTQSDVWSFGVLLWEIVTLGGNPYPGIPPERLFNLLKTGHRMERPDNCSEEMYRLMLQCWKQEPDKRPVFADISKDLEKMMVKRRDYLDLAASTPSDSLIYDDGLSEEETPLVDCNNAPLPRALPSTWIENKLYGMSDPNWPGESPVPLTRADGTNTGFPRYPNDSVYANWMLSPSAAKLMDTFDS
Description: as §1, §2

[8] = system: HEL cells expressing human JAK2 V617F; assay: Cell viability assay: JAK2 inhibition; assay type: cell-based; conditions: for IC50: Homo sapiens, 72-hour incubation
Description: Compounds of the invention were tested for cell viability effect on HEL cells. For cell viability assay, HEL cells expressing human JAK2 V617F were obtained from the American Type Culture Collection (ATCC, Manassas, Va.). This cell line was maintained with an Roswell Park Memorial Institute (RPMI) medium (HyClone™) containing 10 bovine calf serum (BCS; Hyclone™) supplemented iron. The HEL cells were seeded at 2×10^4 cells in 96 well culture plates, and serially diluted compound was then added. After a 72-hour incubation period at 37° C., Cell viability was measured using the ATPLite 1 step assay (Perkin-Elmer™) that is based on the quantification of ATP from viable cells. CellTiter Aqueous assay (Promega™) was also performed in parallel as an orthogonal assay. IC50 values were calculated using nonlinear regression and defined as the concentration needed for a 50 reduction in luminescence or absorbance treated versus untreated control cells (Prism™ Software).

[9] = system: TNF-α release in THP-1 cells, LPS stimulation; assay: SYK independent TNF-α release assay (LPS stimulation); assay type: cell-based, human; conditions: Homo sapiens; LPS stimulation, At 1 μM, THP-1; read-out: Inhibition of TNF-α Release (percentage inhibition)
Description: For SYK independent TNF-α release assay (i.e., via lipopolysaccharide (LPS)-stimulation), THP-1 cells derived from human monocytic cells were obtained from the American Type Culture Collection (ATCC, Manassas, Va.). This cell line was maintained with an RPMI medium (GIBCO™) containing 10 fetal bovine serum (FBS, GIBCO™) and 0.05 mM 2-mercaptoethanol. The THP-1 cells were seeded at 1×10^5 cells/100 μL/well into 96-well culture plates, and treated with lipopolysaccharide (1 μg/ml), and serially diluted compound was then added. After an 18-hour incubation period at 37° C., supernatants were collected for the determination of the TNF-α level by ELISA, and the remaining cells were subjected to an MTT assay to determine the cytotoxic effects of compound.

Sequence of truncated human LRRK2 (Q5S007 1879-2138 limits assumed): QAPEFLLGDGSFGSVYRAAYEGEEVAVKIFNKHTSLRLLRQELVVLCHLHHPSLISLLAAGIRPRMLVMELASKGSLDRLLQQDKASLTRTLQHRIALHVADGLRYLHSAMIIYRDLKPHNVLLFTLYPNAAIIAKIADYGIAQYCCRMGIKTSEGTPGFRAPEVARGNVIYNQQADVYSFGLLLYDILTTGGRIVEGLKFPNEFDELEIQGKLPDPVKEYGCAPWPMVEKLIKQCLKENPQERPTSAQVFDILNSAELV

IC50 [1]: 325 nM
Compound: O=c1[nH]ccc2nc(N3CCC(O)CC3)nc(Nc3cc(C(F)(F)F)cc(C(F)(F)F)c3)c12 [Compound 102, 4-(3,5-bis(trifluoromethyl)phenylamino)-2-(4-hydroxypiperidin-1-yl)pyrido[4,3-d]pyrimidin-5(6H)-one]
Percent Cell Death ([2]; 0.05 uM): 54.9%
Percent Cell Death ([2]; 0.5 uM): 56.0%
Percent Cell Death ([2]; 5 uM): 44.0%
protective effects against LRRK2-associated cell death ([2]; at 0.05 uM and higher, vs vector, DMSO or H2O2 controls): increased protective effects
Percent Cell Death ([3]; 0.05 uM): 49.9%
Percent Cell Death ([3]; 0.5 uM): 55.3%
Percent Cell Death ([3]; 5 uM): 46.5%
protective effects against LRRK2-associated cell death ([3]; LRRK2 wild-type, at 0.05 uM and higher, vs vector, DMSO or H2O2 controls): increased protective effects
Percent Cell Death ([4]; 0.05 uM): 50.0%
Percent Cell Death ([4]; 0.5 uM): 54.4%
Percent Cell Death ([4]; 5 uM): 50.5%

IC50 [5]: 12.4 nM
IC50 [6]: 1.6 nM
IC50 [7]: 5.8 nM
Compound: O=c1[nH]ccc2nc(N3CCC(CO)CC3)nc(Nc3ccc(N4CCS(=O)(=O)CC4)cc3)c12 [Compound 137]
inhibition level compared with Sorafenib [8]: inhibition level greater than those exhibited by Sorafenib
IC50 [8]: 89 nM

IC50 [5]: 9.1 nM
IC50 [6]: 1.6 nM
IC50 [7]: 4.1 nM
Compound: O=c1[nH]ccc2nc(N3CCC(CO)CC3)nc(Nc3ccc(N4CCOCC4)cc3)c12 [Compound 139, 2-(4-(hydroxymethyl)piperidin-1-yl)-4-(4-morpholinophenylamino)pyrido[4,3-d]pyrimidin-5(6H)-one]
inhibition level compared with Sorafenib [8]: inhibition level greater than those exhibited by Sorafenib
times higher inhibition in IC50 than Sorafenib [8]: about 10 time
IC50 [8]: 152 nM

Compound: C[C@@H]1C[C@H]2[C@@H]3CCC4=CC(=O)C=C[C@]4(C)[C@@]3(F)[C@@H](O)C[C@]2(C)[C@@]1(O)C(=O)CO [Dexamethasone, reference compound]
inhibition at 1 µM [9]: 68.4%
